Reference: ChEMBL document CHEMBL5608141, “Identification of compartment-specific drug sensitivities in CRC organoid-stroma co-cultures” (2024)

How the values were obtained:
Assay type in all cases: functional, Homo sapiens
Design in all cases: dose or concentration left out as unconfirmed
Colon cancer organoid [1] = test: Identification of compartment-specific drug sensitivities in O06 CRC organoid-stroma F06 CAF co-cultures. Organoid is transduced with Lucferase2-P2A-EGFP lentivirus, fibroblast with Renilla-dsRed lentivirus. Dual-Glo Luciferase assay is used to report viability data.
Colon cancer organoid [2] = test: Identification of compartment-specific drug sensitivities in O14 CRC organoid-stroma F14 CAF co-cultures. Organoid is transduced with Lucferase2-P2A-EGFP lentivirus, fibroblast with Renilla-dsRed lentivirus. Dual-Glo Luciferase assay is used to report viability data.
Colon cancer organoid [3] = test: Identification of compartment-specific drug sensitivities in O20 CRC organoid-stroma F20 CAF co-cultures. Organoid is transduced with Lucferase2-P2A-EGFP lentivirus, fibroblast with Renilla-dsRed lentivirus. Dual-Glo Luciferase assay is used to report viability data.
[4] = Transduced with Lucferase2-P2A-EGFP lentivirus
[5] = Transduced with Renilla-dsRed lentivirus

| SMILES | Cell Viability (Colon cancer organoid [1]; [4]) | Cell Viability (Colon cancer organoid [1]; [5]) | Cell Viability (Colon cancer organoid [2]; [4]) | Cell Viability (Colon cancer organoid [2]; [5]) | Cell Viability (Colon cancer organoid [3]; [4]) | Cell Viability (Colon cancer organoid [3]; [5]) |
| --- | --- | --- | --- | --- | --- | --- |
| Cn1cc(Cl)c2c(Oc3c(F)cc(Nc4cc(Cl)nc(N)n4)cc3F)ccnc21 [BAY-4900] | 121.536% | 149.241% | 86.5863% | 82.0192% | 91.1614% | 109.2% |
| Cc1c(N2CCCC2)nc2ccc(Br)cc2c1C(=O)NC[C@H](CCC(=O)O)c1ccccc1Cl [BAY-6672] | 132.373% | 142.298% | 108.299% | 92.2123% | 83.1045% | 119.315% |
| COc1ccc(Oc2cc(NCCC(F)(F)F)c3ncc(-c4ccc(C(=O)NC5CC5)c(C)c4)n3n2)c(F)c1F [BAY-1217389] | 5.893% | 100.303% | 9.59% | 58.9964% | 10.0806% | 184.891% |
| CC(=O)N1CCC(c2ccc(C(=O)NC3=NCCN3)cc2C(F)(F)F)CC1 [BI 0054] | 124.071% | 95.7607% | 111.388% | 98.4803% | 121.714% | 122.015% |
| CN(C)C(=O)Cn1cc(-c2nc(C3(c4ccc(-c5cnc(N)nc5)cc4)CC3)no2)cn1 [BI 0153] | 137.539% | 73.6279% | 127.983% | 104.715% | 119.435% | 91.9766% |
| COc1ccc2c(O[C@@H]3C[C@H]4C(=O)N[C@]5(C(=O)O)CC5/C=C\CCCCC[C@H](NC(=O)OC5CCCC5)C(=O)N4C3)cc(-c3csc(NC(=O)C(C)C)n3)nc2c1C (stereo not given in full) [BI 1230] | 110.189% | 125.746% | 146.11% | 113.81% | 95.5192% | 162.279% |
| O=C(N[C@H]1CCCCC/C=C\C2C[C@@]2(C(=O)O)NC(=O)[C@@H]2C[C@@H](Oc3ccncc3)CN2C1=O)OC1CCCC1 (stereo not given in full) [BI 1675] | 164.286% | 81.7525% | 118.741% | 112.641% | 103.036% | 110.731% |
| CCOCCn1cc(C(=O)Nc2ccc(-n3nc(-c4cccnc4)cc3C(F)(F)F)cn2)ccc1=O [BI 1935] | 87.0785% | 88.003% | 82.3072% | 94.7961% | 76.3275% | 148.205% |
| C[C@H](NC(=O)c1cnc2n1[C@](C)(Cc1ccc(C#N)cc1)C(=O)N2c1cc(Cl)c(F)c(Cl)c1)C(=O)NC1(c2ccccn2)CC1 [BI 1950] | 112.036% | 408.477% | 98.1816% | 100.374% | 121.807% | 97.0159% |
| CC(C)(C#Cc1ccc(NC(=O)COc2ccccc2C(=O)c2ccccc2)c(Cl)c1)C(=O)O [BI 2439] | 97.1512% | 131.731% | 66.7268% | 62.0838% | 147.968% | 100.148% |
| Cc1c(NC(=O)COc2ccc(Cl)cc2C(=O)c2cc(F)cc(C(F)(F)F)c2)ccc(C(=O)O)c1F [BI 2540] | 104.073% | 125.125% | 85.0828% | 72.3222% | 66.158% | 145.555% |
| O=C(NC[C@@H]1[C@H]2CN(C(=O)OCc3cc(C(F)(F)F)cc(C(F)(F)F)c3)C[C@@H]12)c1ccc2[nH]nnc2c1 [BI 2545] | 82.8507% | 98.3684% | 136.863% | 113.582% | 135.058% | 115.933% |
| Cc1nccc(COC(=O)N2C[C@@H]3[C@@H](CNC(=O)c4ccc5[nH]nnc5c4)[C@@H]3C2)n1 [BI 3017] | 143.297% | 89.1244% | 148.595% | 113.357% | 107.028% | 99.2728% |
| Cn1nc(C(=O)NCc2ccc(C(=O)O)cc2)cc1-c1ccc2[nH]ccc2c1 [BI 4395] | 119.737% | 69.3241% | 88.69% | 99.7693% | 100.657% | 92.7545% |
| Cn1c(C2(NC(=O)c3ccc(NCC4CCCCC4)nc3)CCC2)nc2ccc(/C=C/C(=O)O)cc21 [BI 7656] | 95.6503% | 130.646% | 93.219% | 83.8542% | 93.1126% | 134.723% |
